Measured values as given in patent US7128912B2, “Fibronectin binding protein compositions and methods of use” (The Texas A&M University System, priority 1997, dated 2006).

B1: modified rFnBD-D: rFnBD-D chemically modified with EDC (protein)
chain: GQNSGNQSFEEDTEEDKPKYEQGGNIVDIDFDSVPQIHGQNKGNQSFEEDTEKDKPKYEHGGNIIDIDFDSVPHIHGFNKHTEIIEEDTNKDKPSYQFGGHNSVDFEEDTLPKVSGQNEGQQTIEEDTTPPIVP
modifications: left off: small tags and cut ends
notes: rFnBD-D chemically modified with EDC
B2: native rFnBD-D: recombinant version of the S. aureus Fn-binding MSCRAMM repeat domain (protein)
chain: GQNSGNQSFEEDTEEDKPKYEQGGNIVDIDFDSVPQIHGQNKGNQSFEEDTEKDKPKYEHGGNIIDIDFDSVPHIHGFNKHTEIIEEDTNKDKPSYQFGGHNSVDFEEDTLPKVSGQNEGQQTIEEDTTPPIVP
modifications: left off: small tags and cut ends

System: S. aureus
Assay: not given
Settings: McGavin et al., 1991; cited from earlier work

Molecule	inhibition of binding of Fn to S. aureus / Fn-binding function
QFGGHNSVDFEEDT [D320-33]	could not inhibit binding of Fn to S. aureus

System: S. aureus
Assay: Inhibition of Fn binding to S. aureus (rFnBD-D, EDC-modified rFnBD-D, immune IgG)
Assay type: cell-based, Staphylococcus aureus
Settings: not given
Description: Based on this observation, the inventors hypothesized that only Fn-binding MSCRAMMs that lack binding activity should lead to blocking antibodies. A recombinant version of the Fn-binding MSCRAMM rFnBD-D was chemically modified with EDC as previously described (McGavin et al., 1991) and tested for its ability to inhibit Fn binding to S. aureus. […] The chemically modified rFnBD-D was then used to immunize rabbits. […] With efficiencies of approximately 98%, chemical modification had the advantage of providing a quick and efficient method for probing entire classes of amino acids. However, an inherent disadvantage in this global approach is that the contribution to binding of individual amino acids was not detected.

Molecule	inhibition of Fn binding to S. aureus
B1	no inhibitory activity
B2	inhibited Fn binding to S. aureus in a dose-dependent manner

System: S. aureus strain Cowan binding to immobilized fibronectin
Assay: Inhibition of biotinylated S. aureus binding to immobilized fibronectin by synthetic peptides (ELISA)
Assay type: cell-based, Staphylococcus aureus
Settings: 250 μg peptide (FIG. 3B)
Procedure: FIG. 2A, FIG. 2B and FIG. 2C. Inhibition of S. aureus binding to immobilized fibronectin by wild-type and mutant D3 peptides 1 through 21 (Table 3). NP indicates the amount of adherent bacteria in the absence of inhibitor. FIG. 2A. Peptides tested at 5 μg/well. FIG. 2B. Peptides tested at 50 μg/well. FIG. 2C. Peptides tested at 250 μg/well.
FIG. 3A and FIG. 3B. FIG. 3A. Inhibition of S. aureus binding to immobilized fibronectin by wild-type peptides D1 and D2 and mutant derivatives. NP indicates the amount of adherent bacteria in the absence of inhibitor. All peptides were tested at 10 μg/well. FIG. 3B. Inhibition of S. aureus binding to immobilized fibronectin by wild-type peptides D1. D2 and DU and mutant derivatives. NP indicates the amount of adherent bacteria in the absence of inhibitor. All peptides were tested at 250 μg/well.
S. aureus strain Cowan was cultured under constant rotation for 15 h at 37° C. in brain heart infusion (BHI; Difco) broth. Bacteria were harvested by centrifugation, resuspended in a bicarbonate buffer (50 mM NaHCO3, pH 8.5) to a final density of 10^10 cells/ml determined by comparing the absorbance at 600 nm of the sample with a previously prepared standard curve relating A600 to cells counted in a Petroff Hausser chamber. Bacterial cells were labeled with biotin by the addition of 100 μl of 1% NHS-biotin/ml of bacterial suspension (Pierce, Rockford, Ill.) in N,N-dimethylformamide. The staphylococcal cells were incubated with the NHS-biotin for 2 h at room temperature with constant rotation. The biotinylation reaction was stopped by removing the supernatant after centrifugation of the bacterial cells. The bacteria were then washed three times in PBS to remove unincorporated biotin. The bacterial cell suspensions were then adjusted to 1×10^10 cells/ml and the cells were stored at 4° C. in PBS, pH 7.4. To prevent unbiotinylated bacteria from growing and to reduce background, sodium azide and 0.1% BSA were added.
A series of peptides, based on the D3 repeat of S. aureus FnBPA, were synthesized to contain a proline residue at each position throughout the entire sequence (i.e., proline scan; Table 3). The mutated peptides were initially tested for their ability to inhibit biotinylated S. aureus binding to immobilized fibronectin. Wells on a 96-well Immulon II plate were coated with […] of a 30 μg/ml solution of purified Fn, either for 2 hr at room temperature or overnight at 4° C. Wells were washed three times with 1× phosphate buffered saline (PBS)-0.05% Tween-80 and blocked for 1 hr with PBS containing 0.01% Tween-80 and 1% BSA. After 1 hr, wells were washed again with PBS containing 0.05% Tween-80. Synthetic peptides were diluted to 5 mg/ml concentration in 1×PBS and tested at a concentration of 5 (FIG. 2A), 50 (FIG. 2B), or 250 μg/well (FIG. 2C). A volume of […] of the synthetic peptide was added to each well, after 15–25 min, followed by […] of biotinylated S. aureus cells. The plates were incubated for one hour at room temperature with slight agitation on a shaker. After 1 hr the wells were washed with PBS-0.05% Tween-80 and then incubated 30 min in 1:5000 dilution of secondary antibody streptavidin alkaline phosphatase. After 30 min, wells were washed again and developed with diethanolamine containing p-nitrophenyl phosphate (PNPP; 1 mg/ml) for 30 min at room temperature. The reaction was monitored at 405 nm.

Molecule	inhibitory activity compared to the wild type peptides
QNSGNQSFEEDTEEDKPKYEQPGNIVDIDFDSVPQIHG [D1–22P]	inhibitory activity was detected
QNKGNQSFEEDTEKDKPKYEHPGNIIDIDFDSVPHIHG [D2–22P]	virtually no inhibitory activity
ADVVEYEEDTNPPGGQVTTESNLVEFDEEST [DU-13P]	virtually no inhibitory activity
ADVVEYEEDTNPGPGQVTTESNLVEFDEEST [DU-14P]	inhibitory activity was detected

Same assay, conditions: FIG. 2C, peptides at 250 μg/well; proline scan of D3

Molecule	ability of mutant D3 peptides to inhibit S. aureus binding to Fn
KPSYQFGPHNSVDFEEDTLPK [compound 8]	inhibitory activity of peptides increased
KPSYQFGGHNPVDFEEDTLPK [compound 11]	inhibitory activity of peptides increased
KPSYQFGGHNSVDFEEDPLPK [compound 18]	enhanced S. aureus Fn binding ability
KPSYQFGGHNSVDFEEPTLPK [compound 17]	enhanced S. aureus Fn binding ability
KPSYQFGGHNSVDFEPDTLPK [compound 16]	enhanced S. aureus Fn binding ability
KPSYQFGGHNSVDFEEDTPPK [compound 19]	enhanced S. aureus Fn binding ability
KPSYQFGGHNSVDFEEDTLPP [compound 21]	enhanced S. aureus Fn binding ability
KPPYQFGGHNSVDFEEDTLPK [compound 3]	inhibitory activity of peptides increased
KPSYQFPGHNSVDFEEDTLPK [compound 7]	decreased ability to inhibit S. aureus binding to Fn
KASYQFGGHNSVDFEEDTLPK [compound 2]	inhibitory activity of peptides increased
KPSPQFGGHNSVDFEEDTLPK [compound 4]	decreased ability to inhibit S. aureus binding to Fn
PPSYQFGGHNSVDFEEDTLPK [compound 1]	inhibitory activity of peptides increased

Same assay, conditions: low concentration, 10 μg peptide (FIG. 3A)

Molecule	inhibitory activity compared with control samples (no peptide)
QNSGNQSFEEDTEEDKPKYEQPGNIVDIDFDSVPQIHG [D1–22P]	no inhibitory activity
QNKGNQSFEEDTEKDKPKYEHPGNIIDIDFDSVPHIHG [D2–22P]	no inhibitory activity
